The target of data set [1] is T1, LasR (Pseudomonas aeruginosa, UniProt P25084).
T1 construct: expressed in transfected cells; host or cells: Escherichia coli DH5α (pJN105L+pSC11)
Kind of data set: LasR antagonism assay, E. coli DH5α (pJN105L+pSC11) β-galactosidase reporter strain. The note with it: for Antagonist, percent inhibition compared to a positive control: initial library (FIG. 4), negative values indicate agonist properties. In kind it is cell-based, P. aeruginosa. As to the method: (§1) FIG. 5B is a bar graph showing the results of […] assay for initial heterocyclic and carbocyclic library (Scheme 1) shown as a percent of the positive control. Antagonism positive control (Pos)=activity of the reporter strain in the absence of synthetic ligand at the EC50 value for the strain. […] Negative control (Neg)=bacteria in the absence of natural and synthetic ligand. Error bars=standard deviation of the mean of triplicate samples.
(§2) The initial library was tested for LasR agonistic and antagonistic activity in two strains: Escherichia coli DH5α (pJN105L+pSC11) [Lee, J. H.; Lequette, Y.; Greenberg, E. P., Activity of purified QscR, a Pseudomonas aeruginosa orphan quorum-sensing transcription factor. Mol. Microbiol. 2006, 59 (2), 602-609] and P. aeruginosa PA01 MW1 (pUM15) [Muh, U.; Schuster, M.; Heim, R.; Singh, A.; Olson, E.; Greenberg, E. P., Novel Pseudomonas aeruginosa Quorum-Sensing Inhibitors Identified in an Ultra-High-Throughput Screen. Antimicrob. Agents Chemother. 2006, 50, 3674-3679] (FIGS. 5A and 5B). Both strains allow for synthetic autoinducer mimic evaluation and contain a reporter gene that allows for a quantitative readout of QS activity. DH5α (pJN105L+pSC11) is a heterologous β-galactosidase E. coli reporter strain containing a plasmid for the P. aeruginosa LasR gene. The PA01 MW1 (pUM15) strain uses the natural P. aeruginosa background containing a LasI deletion and the gene for yellow fluorescent protein (YFP) under the control of the LasI promoter to evaluate the LasI/R activity. Since the PA01 MW1 (pUM15) strain evaluates LasR in the natural P. aeruginosa background, in contrast to the heterologous E. coli strain, an improved idea of the interplay between the isolated LasI/R system and the combination of LasI/R with other QS subsystems such as QscR can be determined. Furthermore, additional nuances of the natural system such as compound permeability are incorporated in assays using the PA01 MW1 (pUM15) strain.

For data set [2], the target named is T1, LasR. Kind of data set: LasR agonism assay, E. coli DH5α (pJN105L+pSC11) β-galactosidase reporter strain. In kind it is cell-based, P. aeruginosa. The conditions noted are these: for EC50: dose response; for Act %: thiolactone libraries, E. coli, synthetic ligands tested at 10 μM. As to the method:
(§3) The black bars are DH5α (pJN105L+pSC11) and the grey bars are PA01 MW1 (pUM15). Agonism positive control=activity of the reporter strain at full turn on for the strain. […] Negative control (Neg)=bacteria in the absence of natural and synthetic ligand. Error bars=standard deviation of the mean of triplicate samples.
as §2

For data set [3], the target named is T1, LasR. Kind of data set: LasR antagonism assay, P. aeruginosa PA01 MW1 (pUM15) YFP reporter strain. The conditions noted are these: for LasR antagonism, in words: P. aeruginosa PA01 MW1 (pUM15), natural background; for Antagonist, percent inhibition compared to a positive control: initial library (FIG. 4), P. aeruginosa PA01 MW1, negative values indicate agonist properties. In kind it is cell-based. As to the method:
as §1, §2

For data set [4], the target named is T2, LuxR (Aliivibrio fischeri, UniProt P35327). In words: cell-based. In kind it is cell-based, Vibrio fischeri. The note with it: for Antagonist, percent inhibition compared to a positive control: initial library (FIG. 4); for Antagonist, percent inhibition compared to a positive control / IC50: V. fischeri ESI 114 (Δ-LuxI); for IC50: dose response; for Inhib %: thiolactone libraries, V. fischeri, synthetic ligands tested at 10 μM. The arrangement: The initial library was also tested in Vibrio fischeri ESI 114 (Δ-LuxI); endogenous in cells; host or cells: Vibrio fischeri ESI 114 (Δ-LuxI). As to the method: (§4) The initial library was also tested in Vibrio fischeri ESI 114 (Δ-LuxI) [Lupp, C.; Urbanowski, M.; Greenberg, E. P.; Ruby, E. G., The Vibrio fischeri quorum-sensing systems ain and lux sequentially induce luminescence gene expression and are important for persistence in the squid host. Mol. Microbiol. 2003, 50 (1), 319-331] and Agrobacterium tumefaciens WCF (pCF372). […] J. Bacteriol. 1998, 180 (20), 5398-5405.] […] [Geske, G. D.; O'Neill, J. C.; Miller, D. M.; Mattmann, M. E.; Blackwell, H. E., Modulation of Bacterial Quorum Sensing: Systematic Evaluation of N-Acylated Homoserine Lactones in Multiple Species and New Insights into Their Mechanism of Action. J. Am. Chem. Soc. 2007, 129, 13613-13625.]

The target of data set [5] is T2, LuxR. The note with it: V. fischeri ESI 114 (Δ-LuxI); for Agonist, percent of activation compared to the positive control: initial library (FIG. 4). As to the method: as §4
In data set [6] the target is T1, LasR. Kind of data set: LasR agonism assay, P. aeruginosa PA01 MW1 (pUM15) YFP reporter strain. In kind it is cell-based. The note with it: for Act %: thiolactone libraries, P. aeruginosa, synthetic ligands tested at 10 μM. As to the method: as §3, §2
Data set [7] in a line: Functional half-life of autoinducers: ligand pre-incubated in media, then PA01 MW1 (pUM15) agonism readout. In kind it is cell-based, P. aeruginosa. The conditions noted are these: ligand incubated in media with antibiotics at 37° C.; pseudo first order, t1/2=ln(2)/slope. As to the method:
[Glansdorp, F. G.; Thomas, G. L.; Lee, J. K.; Dutton, J. M.; Salmond, G. P. C.; Welch, M.; Spring, D. R., Synthesis and stability of small molecule probes for Pseudomonas aeruginosa quorum sensing modulation. Org. Biomol. Chem. 2004, 2, 3329-3336.] […] In these cases the results were determined by NMR experiments conducted in deuterated buffers. […] Unfortunately, the use of high levels of DMSO reduces the biological relevance of the assay because large concentrations of DMSO cannot be tolerated by biological systems. Furthermore, the required concentrations of ligand are lower in a biologically based functional assay than in an NMR experiment because YFP production is much more sensitive than NMR, which requires relatively high concentrations.
In this assay, media, ligand, and antibiotics are prepared in Teflon-capped vials and allowed to incubate at 37° C. for predetermined times. P. aeruginosa cells from the strain PA01 MW1 (pUM15) were cultured overnight. These cells were then pelleted and washed with LB containing 50 mM MOPS. […] The 96 well plate was incubated for 8 hours and then analyzed for optical density and YFP fluorescence. […] Fluorescence was normalized to cell density and time points were analyzed as a percentage of the ability of the freshly prepared natural ligand to agonize the P. aeruginosa system. […]

The target of data set [8] is T3, TraR (Agrobacterium tumefaciens, UniProt P33905). In words: cell-based. In kind it is cell-based. Also noted: and Agrobacterium tumefaciens WCF (pCF372); endogenous in cells; host or cells: Agrobacterium tumefaciens WCF (pCF372). The conditions noted are these: for Inhib %: thiolactone libraries, A. tumefaciens, synthetic ligands tested at 10 μM. As to the method:
as §4

The conditions of data set [9]: cited from earlier work.
The target of data set [10] is T1, LasR. In words: LasR antagonism assay, E. coli DH5α (pJN105L+pSC11) β-galactosidase reporter strain. In kind it is cell-based, P. aeruginosa. The conditions noted are these: thiolactone libraries, synthetic ligands tested at 10 μM.
Data set [11] concerns the target T3, TraR. The conditions noted are these: dose response; A. tumefaciens WCF (pCF372). As to the method: as §4

As a reminder, the EC50 is the midpoint of the concentration-response curve. Usually half-life stands for the time needed for the level to fall by half in the phase considered. The term IC50 denotes the concentration needed to halve the response being measured.

Like-named read-outs stand apart in the source and are kept apart here.

T3 sequence (P33905 whole entry): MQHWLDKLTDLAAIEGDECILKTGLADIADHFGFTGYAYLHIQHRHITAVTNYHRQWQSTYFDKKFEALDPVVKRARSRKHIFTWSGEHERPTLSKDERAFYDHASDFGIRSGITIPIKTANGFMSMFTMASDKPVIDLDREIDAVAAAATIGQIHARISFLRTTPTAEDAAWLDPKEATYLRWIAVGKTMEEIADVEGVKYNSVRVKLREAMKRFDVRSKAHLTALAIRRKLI
T2 sequence (P35327 whole entry): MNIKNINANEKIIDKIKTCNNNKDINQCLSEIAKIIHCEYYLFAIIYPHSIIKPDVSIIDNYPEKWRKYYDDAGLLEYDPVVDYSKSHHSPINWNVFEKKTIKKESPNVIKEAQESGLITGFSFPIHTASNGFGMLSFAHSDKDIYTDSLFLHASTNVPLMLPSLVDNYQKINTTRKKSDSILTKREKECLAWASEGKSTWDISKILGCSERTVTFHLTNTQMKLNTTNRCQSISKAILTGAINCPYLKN
T1 sequence (P25084 whole entry): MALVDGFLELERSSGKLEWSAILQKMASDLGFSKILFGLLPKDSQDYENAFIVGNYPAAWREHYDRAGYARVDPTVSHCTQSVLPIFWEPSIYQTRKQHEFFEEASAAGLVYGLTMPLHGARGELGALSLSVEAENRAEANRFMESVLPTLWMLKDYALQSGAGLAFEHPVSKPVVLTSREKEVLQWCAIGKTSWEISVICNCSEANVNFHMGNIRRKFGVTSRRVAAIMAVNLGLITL

For `CCCCCCCCCC(=O)CC(=O)NCc1ccc(OC)cc1` [Compound 14], the “Antagonist, percent inhibition compared to a positive control” value (“Antagonist, percent inhibition” below) is listed as −67.7% in data set [1] (E. coli DH5α (pJN105L+pSC11)), 37.8% in data set [3] and 14.6% in data set [4]. For the same compound, the “LasR agonism, in words” value in [2] (E. coli DH5α (pJN105L+pSC11)) is recorded as “strongly agonized”. In addition, the “Agonist, percent of activation compared to the positive control” value (“Agonist, percent of activation” below) in [2] (initial library (FIG. 4), E. coli DH5α (pJN105L+pSC11)) is listed as 73.0%. Further, in data set [3], the “LasR antagonism, in words” value was “slight antagonism”.
Turning to `CCCCCCCCCC(=O)CC(=O)NCc1ccco1` [Compound 10], the “Antagonist, percent inhibition” value in data set [3] is listed as 25.5%. Moreover, in [5], the “Agonist, percent of activation” value was 3.3%.
With `CCCCCCCCCC(=O)CC(=O)NCc1ccccc1F` [Compound 7], the “Antagonist, percent inhibition” value in data set [1] (E. coli DH5α (pJN105L+pSC11)) is recorded as 38.8%. Besides, the “Agonist, percent of activation” value in data set [5] is listed as 3.1%.
Consider `CCCCCCCCCC(=O)CC(=O)N[C@H]1CCSC1=O` [Compound 1E], for which the figures for the inhibition at 10 µM in [1] (read-out: Inhib %), in data set [8] (read-out: Inhib %) and in [4] (read-out: Inhib %) were -61%, 51% and 91%, respectively. Moreover, the “LasR agonism, in words” value in data set [2] (E. coli DH5α (pJN105L+pSC11)) is on record as “strong agonists”. The EC50 came out at 0.092 µM in data set [2] (E. coli DH5α (pJN105L+pSC11)) and 3.2 µM in data set [6] (dose response, P. aeruginosa PA01 MW1 (pUM15)). The results for the Act % in data set [2] and in data set [6] were 102% and 127%, respectively. The same compound had a half-life in [7] of 82.3 h. The IC50 was found to be 1.8 µM in [8] (dose response, A. tumefaciens WCF (pCF372)) and 0.45 µM in data set [4].
In the case of `CCCCCCCCCC(=O)CC(=O)N[C@H]1CCOC1=O` [OdDHL, 3-oxo-dodecanoyal homoserine lactone], the half-life was 48.2 h in data set [7] and “approximately two” in data set [9] (previous literature, growth media at 37° C.). In addition, the hydrolysis half-life entry in data set [9] (previous experiments, NMR in deuterated buffers, 50% solution of DMSO) is on record as “approximately two”. The “racemization of the chiral center” value in data set [9] (previous experiments, over the course of a week) is given as “less than 5%”.
As for `O=C(Cc1cccc([N+](=O)[O-])c1)N[C@H]1CCSC1=O` [Compound 19E], the EC50 in data set [2] (E. coli DH5α (pJN105L+pSC11)) was determined as 4.1 µM; in [5] (dose response) it was 11 µM. Besides, the Act % in [2] came out at 81%; in data set [6], 3%. For the same compound, the Inhib % is listed as −3% in data set [10], 30% in data set [8] and 30% in data set [4].
As for `CCCCCCCCCC(=O)CC(=O)Nc1ccccc1` [Compound 2], in data set [1] (E. coli DH5α (pJN105L+pSC11)), the “LasR antagonism, in words” value is given as “antagonism capabilities” and the “Antagonist, percent inhibition” value was 53.7%. For the same compound, in [3], the “LasR antagonism, in words” value is listed as “antagonism capabilities” and the “Antagonist, percent inhibition” value is listed as 28.7%.
Regarding `CCCCCC(=O)CC(=O)N[C@H]1CCSC1=O` [Compound 24E], the Act % is 0% in data set [2] and 3% in data set [6]. Further, the EC50 in data set [11] was determined as 20 µM. Moreover, the Inhib % in data set [10] is given as −30%; in [8], −89%; in [4], 99%. Moreover, 0.35 µM corresponded to half-maximal inhibition in data set [4] (IC50).
Take `CCCCCCCCCC(=O)CC(=O)NCc1cccc([N+](=O)[O-])c1` [Compound 13]: the “Antagonist, percent inhibition” value in [1] (E. coli DH5α (pJN105L+pSC11)) turned out to be 41.0%; in [3], 16.8%; in data set [4], 43.8%. The “Agonist, percent of activation” value in data set [5] was found to be 1.7%.

These data come from patent US9758472B2, “Non-lactone carbocyclic and heterocyclic antagonists and agonists of bacterial quorum sensing” (WISCONSIN ALUMNI RESEARCH FOUNDATION, priority 2009, dated 2017).
